The source of these data is patent US11458112B2, “Compositions and methods for inducing defecation” (Dignify Therapeutics, LLC, priority 2019, dated 2022).

Marks after values point to notes of the source that are not given here. A value given as a limit tells only on which side of the number the result lay.

Data set [1] deals with conscious cSCI rats. In words: Defecation in metabolism cages after intrarectal dosing in conscious chronic spinal cord injured rats. The data set is classed as in vivo, rat. As to conditions: for Number of fecal pellets / Total fecal weight: 0.1 mL intrarectal, within 10 min of dosing, N=6, mean + SD. The protocol: (§1) General: In vivo studies were performed in anesthetized, acute spinal cord injured (SCI) rats, anesthetized spinal intact rats, and awake chronic spinal cord injured rats. Adult female and male Sprague Dawley rats (Charles River, N.C.; 250-650 g) were housed at an AAALAC approved facility in cages (1-3/cage) with free access to water and food in a colony room that was maintained on a 12 hr/12 hr light/dark cycle.
For chronic SCI model preparation, animals were anesthetized with a mixture of ketamine/xylazine (50-100 mg/kg and 5-10 mg/kg intraperitoneal, respectively), the skin and muscle on the dorsal side at the level of the thoracic vertebrae were incised, and the spinal cord was carefully exposed by a laminectomy and transected at either T3-T4 or T8-T10 spinal level. Gelfoam® was placed at the incision site and the muscle and skin overlying the vertebrae were closed with wound clips. The animal recovered from surgery for 7-10 weeks before being studied.
Defecation in awake animals was monitored in metabolism cages. Animals were habituated to handling and the metabolism cages on 2-4 occasions prior to dosing and were then randomized to a treatment arm. Rats were weighed and placed into metabolism cages for 10 min prior to intrarectal administration of vehicle or capsaicin. The number of fecal pellets and timing of events were recorded by trained personnel that were blinded to treatment. Fecal weight is weighed at 10 and 30 min post dosing. Animals were re-tested 2-3 days later in a cross over design.
(§2) Dosing: Intrarectal capsaicin was administered in a dose range of 0.1-2% wt/vol. Capsaicin was dissolved in 95% ethanol at 50-100 mg/mL and then diluted to 2-20 mg/mL with either saline or water to form a suspension and administered intrarectally as a solution using a micropipette, blunt tip tube (22 G) or as a small solution-soaked cotton ball (3-5 mm diameter). Vehicle doses were prepared using the same concentrations of ethanol in water or saline.
Methods: Defecation in rats was monitored in metabolism cages. Chronic spinal cord injured (cSCI) rats were habituated to handling and the metabolism cages on 2-4 occasions before dosing, then randomized to the treatment arm. Rats were weighed and placed into metabolism cages for 10 min prior to receiving an intrarectal dose of vehicle or capsaicin. Since manual stimulation during intrarectal dosing in conscious rats can induce defecation, the tip of a small cotton swab was inserted into the anus prior to dose administration, to stimulate natural defecation of any fecal pellets that were located in the region of the anal sphincter. […] Once the anal sphincter had ceased contracting/relaxing (15-90 s) a fine catheter (22 G soft/flexible blunt tip catheter) was used to dose the vehicle or capsaicin, as this method produced little manual stimulation. Capsaicin was prepared as a 0.2 or 2% solution (2 or 20 mg/ml in diluted ethanol/water; vehicle corresponding to each dose concentration was 1.9 and 19% ethanol/water, respectively). Dose volumes were 0.1 mL and administered via the catheter inserted ˜1 inch through the anus into the rectum. The number of fecal pellets and timing of events were recorded by trained personnel blinded to the treatment. Fecal weight was recorded at 10 and 30 min post dosing. Animals were re-tested 2-3 days later in a cross over design.

In data set [2] the test system is healthy subjects and subjects having irritable bowel syndrome (IBS). To be noted: concentrations of 0.01% and 0.1%, both groups; cited from earlier work.
Data set [3] has as its system anesthetized spinal intact rats. In words: Rectal pressure (balloon catheter) after intrarectal capsaicin solution in anesthetized spinal intact rats. The data set is classed as in vivo, rat. The procedure: as §1
(§3) For all rectal contractility studies, animals were anesthetized with urethane (1.0-1.4 g/kg subcutaneous injection). Surgical procedures were then performed with the addition of isoflurane anesthesia (0.05-1.5% in O2) as needed.
(§4) Rectal Contractility: Rectal pressures were measured via a latex balloon catheter (length 1.5-4 cm) inserted (˜4 cm) into the distal rectal region. The catheter was connected to a pressure monitoring system. […] Parameters measured included peak rectal pressure response, duration of time above baseline activity (in the 1st 5 min after drug administration), area under the curve (measured during the 1st 5 min after drug administration) and the number of contractile events after vehicle and drug administration.
as §2
Methods: Capsaicin was administered to anesthetized spinal intact male and female rats (N=4 males and 1 female) instrumented for rectal pressure recording via a balloon catheter inserted into the rectum 2-4 cm from the anus. Capsaicin was administered as 0.2% solution (0.05-0.32 mL of a 2 mg/ml solution in 4.7 or 9.5% ethanol/saline) via a PE50 tube that was inserted into the rectum alongside the balloon catheter. For comparison, vehicle was administered to all rats using the same techniques.
Methods: Capsaicin was administered to an anesthetized spinal intact male rat instrumented for rectal pressure recording via a balloon catheter inserted into the rectum 2-4 cm from the anus. Capsaicin was administered as 0.2% solution (0.2%, 0.25 mL) in ethanol/saline via a PE50 tube that was inserted into the rectum alongside the balloon catheter. Vehicle was administered to all rats using the same techniques. Administration of capsaicin solution is indicated by filled arrow in FIG. 3.

Data set [4] concerns anesthetized acute T9-transected SCI rats. In words: Rectal pressure after intrarectal capsaicin-soaked cotton ball in anesthetized acute SCI rats. The data set is classed as in vivo, rat. As to conditions: cotton ball soaked in 50 uL of 0.2% solution, 2 female rats. The protocol:
as §1
For the acute SCI model, animals were anesthetized with urethane (1.0-1.4 g/kg subcutaneous injection), the skin and muscle on the dorsal side at the level of the thoracic vertebrae were incised, and the spinal cord was carefully exposed by a laminectomy and transected at T8-T10 spinal level. Gelfoam® was placed at the incision site and the muscle and skin overlying the vertebrae were closed with wound clips. The spinal cord was transected at least 60 min before starting the experimental protocol.
as §3, §4
Dosing: Intrarectal capsaicin was administered in a dose range of 0.1-2% wt/vol. […]
Methods: Capsaicin was administered to 2 anesthetized acute T9-transected SCI female rats instrumented for rectal pressure recording via a balloon catheter inserted into the rectum 2-4 cm from the anus. […] Top and bottom traces in FIG. 4 were recorded from separate rats.

Setting [5] is: 0.2% capsaicin solution intrarectal.
[6] abbreviates: 0.2%, 0.25 mL intrarectal, one male rat (Example 3).

On to `COc1cc(CNC(=O)CCCC/C=C/C(C)C)ccc1O` [Capsaicin, 8-methyl-N-vanillyl-6-nonenamide], for which, in data set [1] (0.2 or 2% intrarectal), the “number and total weight of fecal pellets expelled compared to vehicle” value is “significantly increased”; the “time to completion of defecation” value is at most 10 min; the time to defecation is listed as at most 5 min. In data set [1] (Capsaicin 0.2%), the “Number of fecal pellets” value is 2.17 + 0.84 ^+ and the Total fecal weight is recorded as 1.169 + 0.0489 g. Further, in data set [1] (Capsaicin 2%), the “Number of fecal pellets” value was 2.00 + 0.68 ^+ and the Total fecal weight was 1.265 + 0.414 * g. In data set [1] (any group), the “defecation between 10-30 min post-dosing” value is given as “No defecation was observed”. The “reported sensations following intrarectal administration” value in data set [2] was “discomfort and “an urge to defecate”, but not defecation”. Also, in data set [3] (0.2% capsaicin repeated 20 min after the initial dose), the “response to repeat dosing” value is listed as “evoked a similar response”. Moreover, in data set [3] (setting [5]), the “duration of rectal pressure increase” value was 5 min and the “onset time of rectal pressure increase” value lay in the range of 1 to 2 min. In data set [3] (0.2% capsaicin solution intrarectal, 0.05-0.32 mL, N=4 males and 1 female), the “rats with transient rectal pressure increase” value is on record as 5 of 5. Besides, in data set [3] (setting [6]), the “expulsion of rectal balloon catheter” value is listed as “expelled from the rectum through the anus” and the “onset of increase in rectal pressure” value was at most 1 min. For the same molecule, in data set [4], the “duration of rectal pressure increase” value is listed as under 5 min, the “onset of rectal pressure increase” value is reported as under 2 min and the “rats with capsaicin-induced rectal pressure increase” value is “both rats”.
